For one assay, the system named is SW480 pERK. As to the kind of experiment: Phospho-ERK inhibition, AlphaLISA SureFire Ultra p-ERK 1/2. It is filed as cell-based, human. The conditions noted are these: for IC50: 1 h treatment; for SW480 (Ymin %): lowest value of the pERK IC50 curve. The method, then: (§1) All cancer cell lines (A375, A101D, A2058, RKO, HT29 SK-MEL 30, IPC298, HepG2, HCT-116, Lovo, SW620, SW480, NCI-H358, NCI-H2122, Calu-6, NCIH2087, NCIH1755, NCIH1666 and Mewo) were obtained from ATCC and cultured in RPMI-1640 medium (Gibco) supplemented with 5% heat inactivated fetal bovine serum (FBS, Wisent) at 37° C. under 5% CO2. Cells were maintained in T175 flasks (Greiner). They were passaged by removing the culture medium, washing once in 10 mL of room temperature Phosphate Buffered Saline (PBS; Wisent) and incubating at 37° C. with 2 mL of 0.05% Trypsin (Thermo-Fisher). Trypsin was then inactivated by adding complete growth medium and the cells were then replated in a T175 culture dish at the appropriate dilution. All cell lines were routinely tested for mycoplasma contamination. Tissue type and mutational status of each cell line can be found in Table B.
(§2) AlphaLISA® SureFire® Ultra™ p-ERK ½ (Thr202/Tyr204) analysis was conducted on cells plated in 100 μL of complete RPMI-1640 growth medium in 96-well flat-bottomed transparent dishes (Costar) at a density indicated in Table C. Cells were maintained overnight at 37° C. under 5% CO2 before treatment with compounds' dilution series for one hour. The cell density in cells/cm^2 corresponds to cell number divided by the area of one well of a 96-well plate ([…]).
(§3) In a dilution series 100 μL/well of test substance dilution prepared in complete RPMI-1640 growth media was added to the cells. The dilution series is selected so that ten concentrations cover a range from 30 μM or 10 μM to 0.33 nM. If necessary, the initial concentration of 10 μM is increased to 100 μM or lowered to 1 μM (as in the case of A375 and NCIH1666 cells, which are generally more sensitive to the compounds) and further dilution is carried out accordingly. The final concentration of DMSO in the assay is set at 0.5%.
(§4) After treatment, media was removed, and cells were lysed in 50 μL of 1× AlphaScreen Ultra Lysis Buffer (Perkin Elmer). The AlphaLISA® SureFire® Ultra™ p-ERK ½ (Thr202/Tyr2O4) (PerkinElmer) reactions were performed with 5 μL of cell lysate according to the manufacturer's specifications in 384-well proxyplates (Perkin Elmer) followed by overnight incubation of the reactions at room temperature in a humidified chamber. After completion of the reactions, the signals were recorded on an EnVision plate reader (Perkin Elmer) using built in AlphaLISA® settings.
(§5) The effect of each compound dilution on the pERK signal was expressed in % inhibition and calculated as follows. An internal 100% inhibition control (1 μM trametinib, cat. No. HY-10999; MedChem Express; CAS No. 871700-17-3) was included in each plate and used as a measure of pERK background. First, the value obtained for trametinib was subtracted from each data point. The average of DMSO (vehicle) controls (set as 0% inhibition) was established and used to calculate % inhibition:
(§6) The ability of each compound to inhibit pERK signal was expressed as an IC50 value obtained by plotting the inhibition values for each data point of a dilution series and fitting the obtained curves using a log(agonist) versus response−variable slope (four parameters) function using GraphPadPrism (V7.0).
(§7) When present, paradoxical pERK induction is inferred from the negative % inhibition values observed in the pERK IC50 curves of a compound.
For orientation: Alpha assays give light when donor and acceptor beads are brought close together.

The test system of the next assay is HCT116 pERK. The assay is described as above. The conditions noted are these: for IC50: 1 h treatment; for HCT116 (Ymin %): lowest value of the pERK IC50 curve. The format is cell-based, human. The method, then:
as §1, §2, §3, §4, §5, §6, §7

Setting [1] is: Table 2, read-out: SW480 PERK IC50 (UM).
Setting [2] is: Table 3, read-out: SW480 PERK IC50.

Where two headings read alike, the source gives them in different places.

What is called IC50 is the concentration needed to halve the response being measured. In the case of `COc1ccc(S(=O)(=O)Nc2ccc(F)c(Nc3ncnc4cnc(SC)nc34)c2F)c(C#N)c1` [Example 7], the IC50 with SW480 pERK (setting [1]) fell in the range of 1 to 10 µM. Further, the “SW480 (Ymin %)” value in the assay on SW480 pERK (Table 2) was 17%. For the same molecule, in the assay on HCT116 pERK (Table 2), the IC50 lay within 10 to 30 µM and the “HCT116 (Ymin %)” value worked out at 7%.

Turning to `O=S(=O)(Nc1ccc(F)c(Nc2ncnc3cnc(-n4cnc5ccccc54)nc23)c1F)c1ccc2c(c1)CCO2` [Example 64], in the assay with SW480 pERK (setting [2]), the IC50 was 1 to 10 µM. For the same molecule, the “SW480 (Ymin %)” value in the assay with SW480 pERK (Table 3) was 19%. In the assay on HCT116 pERK (Table 3), the IC50 is 1 to 10 µM and the “HCT116 (Ymin %)” value amounted to 2%.

For the molecule `COc1ccc(S(=O)(=O)Nc2ccc(F)c(Nc3ncnc4cnc(-n5cc(C)nc5C)nc34)c2F)cc1` [Example 37], the IC50 in the assay on SW480 pERK (setting [2]) lay within 1 to 10 µM. Further, the “SW480 (Ymin %)” value with SW480 pERK (Table 3) is −6%. In the assay with HCT116 pERK (Table 3), the IC50 was 1 to 10 µM and the “HCT116 (Ymin %)” value is −5%.

Take `COc1ccc(S(=O)(=O)Nc2ccc(F)c(Nc3ncnc4cnc(Oc5cccc(N)c5)nc34)c2F)cc1` [Example 54]: the IC50 with SW480 pERK (setting [2]) and with HCT116 pERK (Table 3) was 10 to 30 µM each time. The “SW480 (Ymin %)” value with SW480 pERK (Table 3) is 8%. The “HCT116 (Ymin %)” value in the assay with HCT116 pERK (Table 3) is −7%.

In the case of `COc1ccc(S(=O)(=O)Nc2ccc(F)c(Nc3ncnc4cnc(N5CC(F)C5)nc34)c2F)c(F)c1` [Example 52], the IC50 in the assay with SW480 pERK (setting [2]) and with HCT116 pERK (Table 3) was 1 to 10 µM each time. Also, the “SW480 (Ymin %)” value in the assay on SW480 pERK (Table 3) is on record as −8%. In addition, the “HCT116 (Ymin %)” value in the assay on HCT116 pERK (Table 3) is reported as −4%.

For `CSc1ncc2ncnc(Nc3c(F)ccc(NS(=O)(=O)c4ccc(Cl)cc4C)c3F)c2n1` [Example 22], the IC50 in the assay on SW480 pERK (setting [1]) lay in the range of 1 to 10 µM. Further, the “SW480 (Ymin %)” value with SW480 pERK (Table 2) is −5%. Moreover, in the assay with HCT116 pERK (Table 2), the IC50 was 1 to 10 µM and the “HCT116 (Ymin %)” value is recorded as −1%.

As for `CCC1CCN(S(=O)(=O)Nc2ccc(F)c(Nc3ncnc4cnc(-n5cnc6ccccc65)nc34)c2F)C1` (centres unmarked) [Example 76], the IC50 with SW480 pERK (setting [2]) fell in the range of 1 to 10 µM. Also, in the assay with SW480 pERK (Table 3), the “SW480 (Ymin %)” value was −9%. In the assay with HCT116 pERK (Table 3), the IC50 lay in the range of 1 to 10 µM and the “HCT116 (Ymin %)” value is −1%.

As for `O=S(=O)(Nc1ccc(F)c(Nc2ncnc3cnc(-n4cnc5ccccc54)nc23)c1F)N1CCC(OC(F)F)C1` (centres unmarked) [Example 78], the IC50 with SW480 pERK (setting [2]) lay within 0.5 to 1 µM. In the assay on SW480 pERK (Table 3), the “SW480 (Ymin %)” value worked out at 10%. Moreover, in the assay on HCT116 pERK (Table 3), the 50% inhibitory concentration (IC50) was 1 to 10 µM and the “HCT116 (Ymin %)” value is recorded as 6%.

As for `COC1CN(S(=O)(=O)Nc2ccc(F)c(Nc3ncnc4cnc(SC)nc34)c2F)C1` [Example 25], in the assay with SW480 pERK (setting [1]), the IC50 is 10 to 30 µM. Besides, in the assay with SW480 pERK (Table 2), the “SW480 (Ymin %)” value is −6%. Further, in the assay with HCT116 pERK (Table 2), the IC50 fell in the range of 10 to 30 µM and the “HCT116 (Ymin %)” value was 7%.

Regarding `CO[C@@H]1CCN(S(=O)(=O)Nc2ccc(F)c(Nc3ncnc4cnc(-n5ccc6cccnc65)nc34)c2F)C1` [Example 71], the IC50 in the assay with SW480 pERK (setting [2]) and with HCT116 pERK (Table 3) was 1 to 10 µM each time. Further, the “SW480 (Ymin %)” value with SW480 pERK (Table 3) is reported as −4%. In the assay on HCT116 pERK (Table 3), the “HCT116 (Ymin %)” value was 8%.

In the case of `COc1ccc(S(=O)(=O)Nc2ccc(F)c(Nc3ncnc4cnc(-n5cnc6ccccc65)nc34)c2F)cc1` [Example 36], the IC50 in the assay on SW480 pERK (setting [2]) and in the assay with HCT116 pERK (Table 3) was 1 to 10 µM in each case. For the same molecule, the “SW480 (Ymin %)” value with SW480 pERK (Table 3) amounted to 10%. Further, the “HCT116 (Ymin %)” value with HCT116 pERK (Table 3) is given as 10%.

For the molecule `CSc1ncc2ncnc(Nc3c(F)ccc(NS(=O)(=O)c4ccc(Br)cc4F)c3F)c2n1` [Example 16], in the assay with SW480 pERK (setting [1]), the IC50 lay in the range of 1 to 10 µM. In addition, the “SW480 (Ymin %)” value with SW480 pERK (Table 2) worked out at 3%. In the assay on HCT116 pERK (Table 2), the IC50 was 10 to 30 µM and the “HCT116 (Ymin %)” value turned out to be 1%.

Take `COc1ccc(S(=O)(=O)Nc2ccc(F)c(Nc3ncnc4cnc(SC)nc34)c2F)c(F)c1` [Example 8]: in the assay on SW480 pERK (setting [1]), the IC50 lay within 1 to 10 µM. The “SW480 (Ymin %)” value in the assay with SW480 pERK (Table 2) is on record as 15%. Moreover, in the assay with HCT116 pERK (Table 2), the IC50 fell in the range of 1 to 10 µM and the “HCT116 (Ymin %)” value is recorded as −3%.

On to `COc1ccc(S(=O)(=O)Nc2ccc(F)c(Nc3ncnc4cnc(-n5cnc(C)c5C)nc34)c2F)c(C)c1` [Example 56], for which the IC50 with SW480 pERK (setting [2]) fell in the range of 1 to 10 µM. In addition, the “SW480 (Ymin %)” value with SW480 pERK (Table 3) turned out to be 4%. In the assay on HCT116 pERK (Table 3), the IC50 lay within 1 to 10 µM and the “HCT116 (Ymin %)” value is −10%.

Source of the values: patent US20240239801A1, “PYRIMIDO[5,4,D]PYRIMIDINE COMPOUNDS, COMPOSITIONS COMPRISING THEM AND USES THEREOF” (Université de Montréal, priority 2021, published 2024).
